Measurements from patent US20220008499A1, “COMPOUNDS, COMPOSITIONS AND METHODS FOR TREATING SEPSIS” (FERRING B.V., priority 2018, published 2022).
Bridge positions count the residues as written; N and C are the ends. Square brackets hold non-standard residues; d marks the D form. Peptide text beside a SMILES is read from it. Orn(iPr) = CC(C)NCCC[C@H](N)C(=O)O; Aad = N[C@@H](CCCC(=O)O)C(=O)O

What was measured:
[1] = target: human vasopressin V1a receptor (Homo sapiens, UniProt P37288); conditions: relative to the V1b, V2, and oxytocin receptors; cited from earlier work
Chain of human vasopressin V1a receptor (P37288 whole entry): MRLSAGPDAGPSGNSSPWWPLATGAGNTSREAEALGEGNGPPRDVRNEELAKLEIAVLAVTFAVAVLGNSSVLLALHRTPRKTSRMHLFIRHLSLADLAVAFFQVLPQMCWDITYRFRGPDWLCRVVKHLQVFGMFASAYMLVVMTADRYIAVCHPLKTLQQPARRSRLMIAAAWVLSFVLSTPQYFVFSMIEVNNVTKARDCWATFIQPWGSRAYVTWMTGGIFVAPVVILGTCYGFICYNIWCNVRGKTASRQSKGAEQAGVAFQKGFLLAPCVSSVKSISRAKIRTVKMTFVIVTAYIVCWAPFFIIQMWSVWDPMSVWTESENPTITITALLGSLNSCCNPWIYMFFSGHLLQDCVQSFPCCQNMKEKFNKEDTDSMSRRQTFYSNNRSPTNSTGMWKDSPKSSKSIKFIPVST

[2] = tested on: other receptors, ion channels, or transporters; conditions: cited from earlier work
[3] = tested on: patients with vasopressor-dependent sepsis and septic shock; assay: randomized, placebo-controlled, adaptive clinical study of selepressin plus standard care; type: in vivo, human; parameters: Estimated 30-day mortality (up to day 30) / Estimated 30-day mortality, treatment difference vs placebo: concentration or dose not given beside the values; conditions: for improvement in estimated VFDs compared with placebo (more): up to day 30; for Est P&VFDs: all patients / Estimated Pressor and Ventilator Free days (P&VFDs): all patients: all doses pooled; for Est % mortality, treatment difference vs placebo / Est P&VFDs: all patients, treatment difference vs placebo / Est P&VFDs: survivors, treatment difference vs placebo / Estimated P&VFDs: all patients, treatment difference vs placebo / Estimated 30-day mortality, treatment difference vs placebo / Estimated P&VFDs: survivors only, treatment difference vs placebo: selepressin minus placebo; for Estimated Pressor and Ventilator Free days (P&VFDs): all patients: up to Day 30
Description: The study described in the following examples was a randomized, placebo-controlled, seamless two-part, adaptive clinical study. […] The term “vasopressor-dependent sepsis” includes all patients with sepsis requiring vasopressor therapy. Septic shock includes patients with sepsis who require vasopressor therapy and who have a serum lactate concentration of ≥2 mmol/L.
The inclusion and exclusion criteria for the trial are set out below.
Inclusion Criteria • 18 years of age or older • Proven or suspected infection Septic shock defined as hypotension (systolic blood pressure less than 90 mm Hg or • Mean arterial pressure less than 65 mm Hg requiring vasopressor treatment (i.e., any dose of norepinephrine/noradrenaline base greater than […]) despite adequate fluid resuscitation (at least 1 litre for hypotension) • Informed consent obtained in accordance with local regulations
Exclusion Criteria • Unable to initiate treatment with selepressin or placebo within 12 h of onset of vasopressor treatment for septic shock • Primary cause of hypotension not due to sepsis • Previous severe sepsis with intensive care admission within this hospital stay • Known/suspected acute mesenteric ischemia • Suspicion of concomitant acute coronary syndrome based on clinical symptoms and/or electrocardiogram findings during this episode of septic shock • Chronic mechanical ventilation for any reason or severe chronic obstructive pulmonary disease (COPD) requiring either continuous daily oxygen use during the preceding 30 days or mechanical ventilation (for acute exacerbation of COPD) during the preceding 30 days • Received bone marrow transplant during the preceding 6 months or chemotherapy during the preceding 30 days for lymphoma or leukemia • Known to be pregnant Decision to limit full care taken before obtaining informed consent • Use of vasopressin in the past 12 hours before start of selepressin or placebo or use of terlipressin within 7 days of start of selepressin or placebo • Prior enrollment in the study • Prior use of an investigational medicinal product within the last month or planned or concurrent participation in a clinical trial for any investigational drug or investigational device
Additional Criteria that Must be Met at the Time of the Start of the Infusion of Selepressin or Placebo • Received a minimum of 30 ml/kg fluid in total from the onset of hypotension (not required if there is evidence of adequate fluid repletion or overload) • Received a continuous infusion of norepinephrine/noradrenaline base greater than […] for at least 1 h and is still receiving at least […] norepinephrine/noradrenaline base • Less than 12 h since onset of vasopressor treatment for septic shock
The targeted study population is a typical sample of patients presenting with vasopressor-dependent sepsis, defined by failing to respond to intravenous fluid replacement and requiring vasopressors for at least 1 hour, in whom treatment with selepressin or placebo could be initiated within 12 hours of the initiation of vasopressors.
The study drug was the continuous intravenous infusion of either the experimental agent or a matching placebo. In all instances, subjects received study infusion and standard care. The possible treatment arms were: Placebo; selepressin starting infusion rate 1.7 ng/kg/min to maximum 2.5 ng/kg/min; selepressin starting 2.5 ng/kg/min to maximum 3.75 ng/kg/min; selepressin starting 3.5 ng/kg/min to maximum 5.25 ng/kg/min; and selepressin starting 5.0 ng/kg/min to 7.5 ng/kg/min. […] This latter approach sought to wean all other vasoactive agents as soon as possible, and in a specified order, beginning with any open-label vasopressor other than norepinephrine, followed by norepinephrine, and finally the blinded study infusion. All patients received the study infusion until recovery from the need of vasopressor treatment or for 30 days, whichever came first. […]

[4] = tested on: patients with septic shock; conditions: cited from earlier work
[5] = baseline serum lactate <2 mmol/L, n = 184
[6] = baseline serum lactate <2 mmol/L
[7] = baseline serum lactate ≥2 mmol/L, n = 340
[8] = baseline serum lactate ≥2 mmol/L

## CC[C@H](C)[C@@H]1NC(=O)[C@H](Cc2ccccc2)NC(=O)[C@@H](N)CSSC[C@@H](C(=O)N2CCC[C@H]2C(=O)N[C@@H](CCCNC(C)C)C(=O)NCC(N)=O)NC(=O)[C@H](CC(N)=O)NC(=O)[C@H](CCCC(N)=O)NC1=O [Selepressin, selepressin] (H-CFI[Aad](NH2)NCP[Orn(iPr)]G-NH2; disulfide 1-6)
[1]
  affinity and selectivity for V1a receptor: high affinity and selectivity
[2]
  affinity for other receptors, ion channels, or transporters: no known affinity
[3]; PaO2/FiO2 greater than about 200 prior to treatment
  mortality and patient outcomes (pressor and mechanical ventilator free days): improved mortality and improved patient outcomes
[3]; administered within six hours from when the patient requires vasopressor therapy
  mortality and patient outcomes (P&VFDs): improved mortality and improved patient outcomes
[3]; baseline PaO2/FiO2 200-300 mmHg, FIG. 1
  improvement in estimated VFDs compared with placebo (more): 2.1
[3]; baseline PaO2/FiO2 <100 mmHg, FIG. 1
  outcomes (VFDs) compared with placebo: slightly worse
[3]; baseline PaO2/FiO2 ≥300 mmHg, FIG. 1
  improvement in estimated VFDs compared with placebo (more): 4.8
[3]; [5]
  Est % mortality: 21.39%
  Est P&VFDs: all patients: 17.53
[3]; [6]
  Est % mortality, treatment difference vs placebo: −6.32%
  Est P&VFDs: all patients, treatment difference vs placebo: 2.34
  Est P&VFDs: survivors: 22.30
  Est P&VFDs: survivors, treatment difference vs placebo: 1.29
[3]; [7]
  Est % mortality: 40.04%
  Est P&VFDs: all patients: 13.87
[3]; [8]
  Est % mortality, treatment difference vs placebo: 3.96%
  Est P&VFDs: all patients, treatment difference vs placebo: −0.67
  Est P&VFDs: survivors: 23.14
  Est P&VFDs: survivors, treatment difference vs placebo: 0.38
[3]; serum lactate <2 mmol/L at baseline
  improvement in mortality compared with placebo (less): 6.32%
[3]; serum lactate less than about 2 mmol/L prior to treatment
  mortality and patient outcomes (P&VFDs): improved mortality and improved patient outcomes
[3]; treatment <6 hours from when patient required vasopressor, n = 147
  Estimated Pressor and Ventilator Free days (P&VFDs): all patients: 14.56 days
[3]; treatment <6 hours from when patient required vasopressor
  Estimated P&VFDs: all patients, treatment difference vs placebo: 2.08 days
[3]; treatment <6 hours, n = 147
  Estimated 30-day mortality (up to day 30): 35.73%
[3]; treatment <6 hours
  Estimated 30-day mortality, treatment difference vs placebo: −6.57%
  Estimated Pressor and Ventilated Free Days (P&VFDs): survivors only: 22.66 days
  Estimated P&VFDs: survivors only, treatment difference vs placebo: 1.02 days
[3]; treatment between zero and up to six hours from when patient required vasopressor
  improvement in mortality compared with placebo (less): 6.57%
[3]; treatment ≥6 hours, n = 415
  Estimated 30-day mortality (up to day 30): 33.79%
  Estimated Pressor and Ventilator Free days (P&VFDs): all patients: 15.59 days
[3]; treatment ≥6 hours
  Estimated 30-day mortality, treatment difference vs placebo: 2.91%
  Estimated P&VFDs: all patients, treatment difference vs placebo: -0.05 days
  Estimated Pressor and Ventilated Free Days (P&VFDs): survivors only: 23.55 days
  Estimated P&VFDs: survivors only, treatment difference vs placebo: 0.92 days

## NC(=O)CC[C@@H]1NC(=O)[C@H](Cc2ccccc2)NC(=O)[C@H](Cc2ccc(O)cc2)NC(=O)[C@@H](N)CSSC[C@@H](C(=O)N2CCC[C@H]2C(=O)N[C@@H](CCCN=C(N)N)C(=O)NCC(N)=O)NC(=O)[C@H](CC(N)=O)NC1=O [vasopressin]
[4]; all patients
  overall mortality compared with norepinephrine: not different
[4]; patients requiring 5-14 ug/min of norepinephrine at enrollment
  mortality compared with norepinephrine: decreased mortality
